Earlier results, collected in US9642799B2, “Crystalline 6-(2-((4-amino-3-(3-hydroxyphenyl)-1H-pyrazolo[3,4-D]pyrimidin-1-yl)methyl)-3-(2-chlorobenzyl)-4-0X0-3,4-dihydroquinazolin-5-yl)-N,N-bis(2-methoxyethyl)hex-5-ynamide” (Respivert Limited, priority 2012, dated 2017).

Experiments:
[1] = test system: ovalbumin-sensitized, ovalbumin-challenged mice
mice = details: stimulated by TNFα
[2] = elicited by either LPS or cigarette smoke
murine model = details: administered by aerosolisation

| Compound | airways hyper-responsiveness, IgE release, pro-inflammatory cytokine expression, inflammatory cell accumulation into the lung and vascular permeability [1] | neutrophil accumulation in the lungs and neutrophil function (mice) | pulmonary neutrophilia [2] | pulmonary eosinophilia, interleukin-13, mucin accumulation and airways hyperesponsiveness (murine model) |
| --- | --- | --- | --- | --- |
| Cc1ccccc1-n1c(Cn2cnc3c(N)ncnc32)nc2cccc(C)c2c1=O [IC-87114] | found to inhibit | lowered | – | – |
| Nc1nc(N)c2nc(-c3cccc(O)c3)c(-c3cccc(O)c3)nc2n1 [TG100-115] | – | – | able to inhibit | reported to inhibit |
